Assay results published in ChEMBL document CHEMBL5329199, “Discovery of novel dual Bruton's tyrosine kinase (BTK) and Janus kinase 3 (JAK3) inhibitors as a promising strategy for rheumatoid arthritis” (Bioorg Med Chem, 2023).
Blank lines part the entries; values can stand above or below the compound they belong to.

What was measured:
[1] = target: Tyrosine-protein kinase BTK (Homo sapiens, UniProt Q06187); test: Inhibition of BTK (unknown origin) preincubated for 10 mins followed by kinase substrate and ATP addition and measured for 20 mins by mobility shift assay
Tyrosine-protein kinase BTK, sequence (Q06187 whole entry): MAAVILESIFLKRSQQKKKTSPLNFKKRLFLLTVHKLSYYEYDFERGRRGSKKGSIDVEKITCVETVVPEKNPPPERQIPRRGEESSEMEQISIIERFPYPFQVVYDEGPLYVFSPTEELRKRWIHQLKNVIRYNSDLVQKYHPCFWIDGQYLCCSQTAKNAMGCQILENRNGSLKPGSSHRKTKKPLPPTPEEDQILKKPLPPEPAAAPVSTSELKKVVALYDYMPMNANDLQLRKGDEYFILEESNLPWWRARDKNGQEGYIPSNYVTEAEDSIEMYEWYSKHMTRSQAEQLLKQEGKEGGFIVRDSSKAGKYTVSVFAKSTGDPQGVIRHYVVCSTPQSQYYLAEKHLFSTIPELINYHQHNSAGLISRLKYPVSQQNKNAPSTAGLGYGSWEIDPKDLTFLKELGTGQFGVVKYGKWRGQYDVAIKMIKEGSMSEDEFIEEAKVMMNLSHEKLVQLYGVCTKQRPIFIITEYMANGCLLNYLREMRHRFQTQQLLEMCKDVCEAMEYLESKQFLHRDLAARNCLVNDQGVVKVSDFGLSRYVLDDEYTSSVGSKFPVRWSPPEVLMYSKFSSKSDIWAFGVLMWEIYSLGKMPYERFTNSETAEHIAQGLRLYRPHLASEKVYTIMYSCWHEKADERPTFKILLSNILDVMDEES

[2] = target: T1, Tyrosine-protein kinase JAK3 (Homo sapiens, UniProt P52333); test: Inhibition of JAK3 (unknown origin) preincubated for 10 mins followed by kinase substrate and ATP addition and measured for 30 mins by mobility shift assay
T1 sequence (P52333 whole entry): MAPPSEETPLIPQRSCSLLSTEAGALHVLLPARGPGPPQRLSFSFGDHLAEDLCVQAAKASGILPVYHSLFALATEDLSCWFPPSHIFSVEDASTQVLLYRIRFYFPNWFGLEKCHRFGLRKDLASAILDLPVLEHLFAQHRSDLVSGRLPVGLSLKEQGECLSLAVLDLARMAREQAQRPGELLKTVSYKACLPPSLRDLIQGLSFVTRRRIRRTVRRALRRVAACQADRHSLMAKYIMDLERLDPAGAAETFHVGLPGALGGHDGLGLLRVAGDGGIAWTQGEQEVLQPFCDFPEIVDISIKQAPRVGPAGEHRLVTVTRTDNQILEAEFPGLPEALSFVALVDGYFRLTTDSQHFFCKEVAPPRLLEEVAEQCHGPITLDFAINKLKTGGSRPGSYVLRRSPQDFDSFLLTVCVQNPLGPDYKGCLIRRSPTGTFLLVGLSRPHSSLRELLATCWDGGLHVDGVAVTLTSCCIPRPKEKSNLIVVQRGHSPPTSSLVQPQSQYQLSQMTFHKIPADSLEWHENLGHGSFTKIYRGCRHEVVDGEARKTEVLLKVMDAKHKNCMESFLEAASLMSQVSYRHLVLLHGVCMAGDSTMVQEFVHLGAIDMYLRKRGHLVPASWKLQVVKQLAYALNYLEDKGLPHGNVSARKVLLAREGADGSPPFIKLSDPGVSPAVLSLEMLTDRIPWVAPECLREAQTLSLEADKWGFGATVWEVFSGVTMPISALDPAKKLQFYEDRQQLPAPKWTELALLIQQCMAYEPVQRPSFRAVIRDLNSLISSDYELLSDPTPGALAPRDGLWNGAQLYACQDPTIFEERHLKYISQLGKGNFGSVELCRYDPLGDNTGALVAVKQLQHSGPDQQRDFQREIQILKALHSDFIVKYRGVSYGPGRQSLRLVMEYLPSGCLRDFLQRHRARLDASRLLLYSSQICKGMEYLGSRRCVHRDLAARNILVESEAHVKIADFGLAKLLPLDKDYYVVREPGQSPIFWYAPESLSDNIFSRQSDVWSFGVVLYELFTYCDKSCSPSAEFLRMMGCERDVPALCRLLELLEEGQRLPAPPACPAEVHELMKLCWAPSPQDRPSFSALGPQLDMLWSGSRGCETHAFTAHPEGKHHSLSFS

[3] = target: Non-receptor tyrosine-protein kinase TYK2 (Homo sapiens, UniProt P29597); test: Inhibition of TYK2 (unknown origin) using kinetic substrate in presence of ATP by mobility shift assay
Non-receptor tyrosine-protein kinase TYK2, sequence (P29597 whole entry): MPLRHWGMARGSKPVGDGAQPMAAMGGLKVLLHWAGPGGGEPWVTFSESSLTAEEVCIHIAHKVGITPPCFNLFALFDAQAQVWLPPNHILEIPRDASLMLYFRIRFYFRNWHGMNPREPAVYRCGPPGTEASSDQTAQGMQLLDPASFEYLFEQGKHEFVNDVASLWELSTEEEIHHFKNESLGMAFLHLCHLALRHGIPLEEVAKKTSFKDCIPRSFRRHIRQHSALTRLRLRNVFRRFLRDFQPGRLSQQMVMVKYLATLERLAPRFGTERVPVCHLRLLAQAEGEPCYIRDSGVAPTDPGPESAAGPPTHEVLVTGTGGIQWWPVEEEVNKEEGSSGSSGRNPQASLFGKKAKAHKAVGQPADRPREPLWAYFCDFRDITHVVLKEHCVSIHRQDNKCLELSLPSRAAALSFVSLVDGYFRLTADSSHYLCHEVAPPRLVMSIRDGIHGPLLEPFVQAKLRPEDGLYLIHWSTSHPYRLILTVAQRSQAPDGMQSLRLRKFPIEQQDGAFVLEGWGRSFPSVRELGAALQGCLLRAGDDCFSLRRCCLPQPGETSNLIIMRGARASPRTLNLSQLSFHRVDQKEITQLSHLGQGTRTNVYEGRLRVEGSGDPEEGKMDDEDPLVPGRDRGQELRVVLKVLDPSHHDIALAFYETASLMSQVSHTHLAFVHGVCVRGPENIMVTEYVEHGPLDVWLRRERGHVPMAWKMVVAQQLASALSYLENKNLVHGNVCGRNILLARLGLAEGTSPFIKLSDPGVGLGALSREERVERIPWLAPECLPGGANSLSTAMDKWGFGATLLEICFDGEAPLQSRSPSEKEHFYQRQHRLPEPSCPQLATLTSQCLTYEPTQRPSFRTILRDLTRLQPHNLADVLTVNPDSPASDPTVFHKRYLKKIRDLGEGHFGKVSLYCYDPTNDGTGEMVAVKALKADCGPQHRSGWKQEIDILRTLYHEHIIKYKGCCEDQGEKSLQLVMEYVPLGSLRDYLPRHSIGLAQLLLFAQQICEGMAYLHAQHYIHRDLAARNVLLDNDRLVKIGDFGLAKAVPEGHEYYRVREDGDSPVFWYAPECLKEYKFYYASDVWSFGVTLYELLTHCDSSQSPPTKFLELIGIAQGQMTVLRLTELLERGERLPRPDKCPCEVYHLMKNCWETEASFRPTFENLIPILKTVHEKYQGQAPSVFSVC

[4] = target: Tyrosine-protein kinase JAK1 (Homo sapiens, UniProt P23458); test: Inhibition of JAK1 (unknown origin) using kinetic substrate in presence of ATP by mobility shift assay
[5] = Half life in Sprague-Dawley rat at 50 mg/kg, po by LC/MS analysis; type: ADME, organism-based; conditions: in vivo
[6] = AUC(all) in Sprague-Dawley rat at 5 mg/kg, iv measured for 720 mins by LC/MS analysis; type: ADME, organism-based; set-up: time 720 min, dose 5 mg/kg, route iv; conditions: in vivo
[7] = Cytotoxicity against rat NRK cells incubated for 12 hrs by MTT assay; type: toxicity, cell-based
[8] = AUC(all) in Sprague-Dawley rat at 50 mg/kg, po measured for 720 mins by LC/MS analysis; type: ADME, organism-based; set-up: dose 50 mg/kg, time 720 min, route po; conditions: in vivo
[9] = Oral bioavailability in Sprague-Dawley rat at 50 mg/kg measured for 720 mins by LC/MS analysis; type: ADME, organism-based; conditions: in vivo
[10] = Cytotoxicity against human L02 cells incubated for 12 hrs by MTT assay; type: toxicity, cell-based
[11] = Cmax in Sprague-Dawley rat at 50 mg/kg, po measured for 720 mins by LC/MS analysis; type: ADME, organism-based; set-up: dose 50 mg/kg, time 720 min, route po; conditions: in vivo
[12] = Cytotoxicity against rat NRK cells incubated for 48 hrs by MTT assay; type: toxicity, cell-based
[13] = target: Tyrosine-protein kinase JAK2 (Homo sapiens, UniProt O60674); test: Inhibition of JAK2 (unknown origin) using kinetic substrate in presence of ATP by mobility shift assay
Tyrosine-protein kinase JAK2, sequence (O60674 whole entry): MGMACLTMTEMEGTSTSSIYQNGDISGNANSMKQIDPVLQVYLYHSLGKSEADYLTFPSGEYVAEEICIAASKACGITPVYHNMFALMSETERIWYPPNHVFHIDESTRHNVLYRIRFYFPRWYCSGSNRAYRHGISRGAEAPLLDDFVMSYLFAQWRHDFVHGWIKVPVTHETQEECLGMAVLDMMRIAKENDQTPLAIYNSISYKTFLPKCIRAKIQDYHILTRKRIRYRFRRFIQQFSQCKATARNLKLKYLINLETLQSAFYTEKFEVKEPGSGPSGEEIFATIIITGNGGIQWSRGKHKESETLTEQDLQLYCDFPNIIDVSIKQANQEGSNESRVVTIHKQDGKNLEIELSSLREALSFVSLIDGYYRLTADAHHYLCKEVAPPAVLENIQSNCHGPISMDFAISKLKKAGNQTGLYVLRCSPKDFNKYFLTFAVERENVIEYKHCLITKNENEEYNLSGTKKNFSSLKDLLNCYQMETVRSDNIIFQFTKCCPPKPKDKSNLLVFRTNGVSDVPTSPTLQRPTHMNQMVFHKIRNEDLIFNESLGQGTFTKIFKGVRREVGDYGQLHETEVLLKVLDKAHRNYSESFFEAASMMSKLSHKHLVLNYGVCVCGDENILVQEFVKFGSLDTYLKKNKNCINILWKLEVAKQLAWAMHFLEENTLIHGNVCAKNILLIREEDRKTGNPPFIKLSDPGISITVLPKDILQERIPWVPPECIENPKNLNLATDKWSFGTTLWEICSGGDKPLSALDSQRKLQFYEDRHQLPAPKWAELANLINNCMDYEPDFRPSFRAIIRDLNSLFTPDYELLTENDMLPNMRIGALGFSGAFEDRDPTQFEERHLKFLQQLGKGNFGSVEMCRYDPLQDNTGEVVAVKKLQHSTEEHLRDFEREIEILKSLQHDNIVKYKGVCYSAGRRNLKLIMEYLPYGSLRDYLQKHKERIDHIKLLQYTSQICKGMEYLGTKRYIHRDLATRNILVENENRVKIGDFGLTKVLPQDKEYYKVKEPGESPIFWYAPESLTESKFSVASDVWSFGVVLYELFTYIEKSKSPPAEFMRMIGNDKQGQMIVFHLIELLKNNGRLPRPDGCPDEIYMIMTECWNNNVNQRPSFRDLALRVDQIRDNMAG

[14] = Acute toxicity in po dosed ICR mouse assessed as minimum lethal dose measured for 7 days; type: organism-based; conditions: in vivo, 168 h, time 7 day
[15] = Cytotoxicity against human L02 cells incubated for 24 hrs by MTT assay; type: toxicity, cell-based
[16] = Observed MRT(infinity) in Sprague-Dawley rat at 50 mg/kg, po measured for 720 mins by LC/MS analysis; type: ADME, organism-based; conditions: in vivo
[17] = target: Voltage-gated inwardly rectifying potassium channel KCNH2 (Homo sapiens, UniProt Q12809); test: Inhibition of human ERG by patch clamp assay
Voltage-gated inwardly rectifying potassium channel KCNH2, sequence (Q12809 whole entry): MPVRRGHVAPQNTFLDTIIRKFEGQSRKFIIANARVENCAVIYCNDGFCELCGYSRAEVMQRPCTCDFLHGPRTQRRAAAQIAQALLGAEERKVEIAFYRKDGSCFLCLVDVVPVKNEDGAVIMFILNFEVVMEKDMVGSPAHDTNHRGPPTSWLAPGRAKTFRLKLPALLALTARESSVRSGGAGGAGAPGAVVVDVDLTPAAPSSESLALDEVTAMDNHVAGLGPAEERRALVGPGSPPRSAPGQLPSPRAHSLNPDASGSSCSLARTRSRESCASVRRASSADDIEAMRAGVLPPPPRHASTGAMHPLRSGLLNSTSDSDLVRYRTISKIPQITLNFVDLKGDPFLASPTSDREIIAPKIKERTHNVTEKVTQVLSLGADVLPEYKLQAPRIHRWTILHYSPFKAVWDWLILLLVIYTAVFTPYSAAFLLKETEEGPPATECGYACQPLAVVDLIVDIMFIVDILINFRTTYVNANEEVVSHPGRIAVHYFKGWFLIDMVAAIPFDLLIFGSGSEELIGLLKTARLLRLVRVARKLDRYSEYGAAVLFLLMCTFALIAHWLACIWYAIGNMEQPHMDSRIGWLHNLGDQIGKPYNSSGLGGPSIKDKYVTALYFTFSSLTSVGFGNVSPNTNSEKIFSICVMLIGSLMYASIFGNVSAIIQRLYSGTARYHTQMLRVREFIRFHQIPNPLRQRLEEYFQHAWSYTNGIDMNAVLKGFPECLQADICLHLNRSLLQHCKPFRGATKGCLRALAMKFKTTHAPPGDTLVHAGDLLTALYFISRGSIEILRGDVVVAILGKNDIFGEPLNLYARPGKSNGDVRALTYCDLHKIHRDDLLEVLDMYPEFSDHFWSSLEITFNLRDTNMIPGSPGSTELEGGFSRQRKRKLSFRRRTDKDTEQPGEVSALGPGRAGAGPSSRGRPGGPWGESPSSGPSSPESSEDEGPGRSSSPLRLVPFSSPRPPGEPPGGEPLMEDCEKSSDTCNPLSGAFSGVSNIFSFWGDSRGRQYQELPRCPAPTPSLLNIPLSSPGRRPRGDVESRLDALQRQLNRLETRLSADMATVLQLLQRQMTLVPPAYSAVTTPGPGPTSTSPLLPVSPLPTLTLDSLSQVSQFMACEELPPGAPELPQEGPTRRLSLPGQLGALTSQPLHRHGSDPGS

[18] = Cytotoxicity against mouse RAW264.7 cells incubated for 12 hrs by MTT assay; type: toxicity, cell-based
[19] = Tmax in Sprague-Dawley rat at 50 mg/kg, po by LC/MS analysis; type: ADME, organism-based; conditions: in vivo
[20] = Observed MRT(infinity) in Sprague-Dawley rat at 5 mg/kg, iv measured for 720 mins by LC/MS analysis; type: ADME, organism-based; conditions: in vivo
[21] = system: Daudi; test: Antiproliferative activity against human Daudi cells assessed as inhibition of cell growth incubated for 72 hrs by Cell Titer-Glo assay; type: functional, cell-based
[22] = Cytotoxicity against rat NRK cells incubated for 24 hrs by MTT assay; type: toxicity, cell-based
[23] = Cytotoxicity against HUVEC cells incubated for 24 hrs by MTT assay; type: toxicity, cell-based; conditions: human
[24] = system: BaF3; test: Antiproliferative activity against mouse BaF3 cells expressing JAK3 mutant assessed as inhibition of cell growth incubated for 72 hrs by Cell Titer-Glo assay; type: functional, cell-based; conditions: BaF3, 72 h
[25] = Cytotoxicity against human L02 cells incubated for 48 hrs by MTT assay; type: toxicity, cell-based
[26] = Cytotoxicity against mouse RAW264.7 cells incubated for 24 hrs by MTT assay; type: toxicity, cell-based
[27] = Cytotoxicity against HUVEC cells incubated for 12 hrs by MTT assay; type: toxicity, cell-based; conditions: human
[28] = Cytotoxicity against HUVEC cells incubated for 48 hrs by MTT assay; type: toxicity, cell-based; conditions: human
[29] = Cytotoxicity against mouse RAW264.7 cells incubated for 48 hrs by MTT assay; type: toxicity, cell-based

SMILES: C=CC(=O)N1CCC[C@@H]1Cn1nc(-c2ccc(NC(=O)c3ccc(N(C)C)cc3)c3c2OCO3)c2c(N)ncnc21
IC50 [1]: 6 nM
IC50 [2]: 645 nM

SMILES: C=CC(=O)N1CCC[C@@H](n2nc(-c3ccc(NC(=O)c4ccc[nH]4)c4c3OCO4)c3c(N)ncnc32)C1
IC50 [1]: 2.4 nM
IC50 [2]: 100 nM

SMILES: C=CC(=O)N1CCC[C@@H](n2nc(-c3ccc(NC(=O)c4ccc(C#N)cc4)c4c3OCO4)c3c(N)ncnc32)C1
IC50 [1]: 2.9 nM
IC50 [2]: 372 nM

SMILES: C=CC(=O)N1CCC[C@@H](n2nc(-c3ccc(NC(=O)c4ccccc4N(C)C)c4c3OCO4)c3c(N)ncnc32)C1
IC50 [1]: 3.49 nM
IC50 [2]: 122 nM

SMILES: N#C/C(=C\C1CC1)C(=O)N1CCC[C@@H](n2nc(-c3ccc(NC(=O)c4ccccc4)c4c3OCO4)c3c(N)ncnc32)C1
IC50 [1]: 3 nM
IC50 [2]: > 10000 nM

SMILES: C=CC(=O)N1CCC[C@@H](n2nc(-c3ccc(NC(=O)c4ccc(N(C)C)cc4)c4c3OCO4)c3c(N)ncnc32)C1
IC50 [3]: > 10000 nM
IC50 [4]: > 10000 nM
half-life [5]: 2.57 h
AUC at 12 h [6]: 299 ng·h/mL
IC50 at 12 h [7]: 51000 nM
AUC at 12 h [8]: 437 ng·h/mL
IC50 [1]: 2 nM
bioavailability [9]: 13.2%
IC50 at 12 h [10]: 69900 nM
Cmax [11]: 209 ng/mL
IC50 at 48 h [12]: 11800 nM
IC50 [2]: 14 nM
IC50 [13]: > 10000 nM
MLD [14]: > 1600 mg/kg
IC50 at 24 h [15]: 28200 nM
MRT inf [16]: 3.4 h
IC50 [17]: 14800 nM
IC50 at 12 h [18]: 60800 nM
Tmax [19]: 0.459 h
MRT inf [20]: 9.36 min
IC50 [21]: 690 nM
IC50 at 24 h [22]: 15700 nM
IC50 at 24 h [23]: 40600 nM
IC50 [24]: 366 nM
IC50 at 48 h [25]: 9610 nM
IC50 at 24 h [26]: 50600 nM
IC50 at 12 h [27]: 50000 nM
IC50 at 48 h [28]: 27300 nM
IC50 at 48 h [29]: 19700 nM

SMILES: C=CC(=O)N1CCC[C@@H](n2nc(-c3ccc(NC(=O)C4CCN(C)CC4)c4c3OCO4)c3c(N)ncnc32)C1
IC50 [1]: 585 nM
IC50 [2]: > 10000 nM

SMILES: C=CC(=O)N1CCC[C@@H](n2nc(-c3ccc(NC(=O)c4ccc(C(C)(C)C)cc4)c4c3OCO4)c3c(N)ncnc32)C1
IC50 [1]: 2.7 nM
IC50 [2]: 37 nM

SMILES: CC#CC(=O)N1CCC[C@@H](n2nc(-c3ccc(NC(=O)c4ccccc4)c4c3OCO4)c3c(N)ncnc32)C1
IC50 [1]: 24 nM
IC50 [2]: > 10000 nM

SMILES: C=CC(=O)N1CCC[C@@H](n2nc(-c3ccc(NC(=O)c4ccc(OC)c(OC)c4)c4c3OCO4)c3c(N)ncnc32)C1
IC50 [1]: 3.4 nM
IC50 [2]: 147 nM

Now those with a lower IC50 [1], led by results:

IC50 [1]: 1.9 nM
IC50 [2]: 35 nM
SMILES: C=CC(=O)N1CCC[C@@H](n2nc(-c3ccc(NC(=O)c4cccc5c4CCCC5)c4c3OCO4)c3c(N)ncnc32)C1

IC50 [1]: 1.5 nM
IC50 [2]: 44 nM
SMILES: C=CC(=O)N1CCC[C@@H](n2nc(-c3ccc(NC(=O)c4ccc(OC)cc4)c4c3OCO4)c3c(N)ncnc32)C1

IC50 [1]: 1.48 nM
IC50 [2]: 500 nM
SMILES: C=CC(=O)N1CCC[C@@H](n2nc(-c3ccc(NC(=O)C45CCC(CC4)C5)c4c3OCO4)c3c(N)ncnc32)C1

IC50 [1]: 1.4 nM
IC50 [2]: 70 nM
SMILES: C=CC(=O)N1CCC[C@@H](n2nc(-c3ccc(NC(=O)c4ccccn4)c4c3OCO4)c3c(N)ncnc32)C1

IC50 [1]: 1.3 nM
IC50 [2]: 73 nM
SMILES: C=CC(=O)N1CCC[C@@H](n2nc(-c3ccc(NC(=O)c4ccccc4)c4c3OCO4)c3c(N)ncnc32)C1

IC50 [1]: 0.42 nM
IC50 [2]: 19 nM
SMILES: C=CC(=O)N1CCC[C@@H](n2nc(-c3ccc(NC(=O)c4cc5ccccc5s4)c4c3OCO4)c3c(N)ncnc32)C1
